Results from patent US20240043427A1 (Gilead Sciences, Inc., priority 2020, published 2024).
“And” between values parts separate entries of the source, which are not always exact repeats. Equal values may be shown once. Read-outs that look alike come from different tables or passages of the source.

Assays:
CD73 [1] = molecular target: T1, CD73 (Homo sapiens (Human), UniProt P21589); assay: MDA-MB-231 Cell Based CD73 Activity Assay; details: MDA-MB-231-GFP cells, RPMI medium with 10% human plasma, 200 uM AMP
Description: MDA-MB-231 Cell Based CD73 Activity Assay
MDA-MB-231-GFP cells were seeded in 384-well plates (Greiner 781946) at a density of 10000 cells per well in 50 μL of RPMI medium with 10% HP (human plasma). Cells were plated into assay plate with compounds pre-spotted, for an overnight compound treatment. 50 μL of 400 μM AMP (final concentration 200 μM) using a Bio-tek dispenser. Plates were incubated for 100 mins. […] The samples were run using Rapid fire.

CD73 [2] = molecular target: T1, CD73; assay: CD73 Biochemical IC50 Assay; details: CD73 0.3 nM, AMP 15 uM, 25 mM Tris pH 7.4, 5 mM MgCl2
Description: CD73 Biochemical IC50 Assay
Compound serial dilutions were pre-spotted into Thermo Nunc assay plate. 50 μL CD73 enzyme buffer (CD73 purchased from R&D system=0.6 nM, 25 mM Tris, pH 7.4, 5 mM MgCl2) was added into the assay plate and incubated for 15 mins. […] The samples were run using Rapid fire.

CD73 [3] = molecular target: T1, CD73; assay: MDA-MB-231 Cell Based CD73 Activity Assay (DMEM); details: MDA-MB-231-GFP cells, DMEM medium with 10% human plasma, 200 uM AMP
CD73 [4] = molecular target: T1, CD73; assay type: biochemical; details: 1 mM NaH2PO4 in enzyme buffer, CD73 0.3 nM, AMP 15 uM

T1 sequence (P21589 27-574): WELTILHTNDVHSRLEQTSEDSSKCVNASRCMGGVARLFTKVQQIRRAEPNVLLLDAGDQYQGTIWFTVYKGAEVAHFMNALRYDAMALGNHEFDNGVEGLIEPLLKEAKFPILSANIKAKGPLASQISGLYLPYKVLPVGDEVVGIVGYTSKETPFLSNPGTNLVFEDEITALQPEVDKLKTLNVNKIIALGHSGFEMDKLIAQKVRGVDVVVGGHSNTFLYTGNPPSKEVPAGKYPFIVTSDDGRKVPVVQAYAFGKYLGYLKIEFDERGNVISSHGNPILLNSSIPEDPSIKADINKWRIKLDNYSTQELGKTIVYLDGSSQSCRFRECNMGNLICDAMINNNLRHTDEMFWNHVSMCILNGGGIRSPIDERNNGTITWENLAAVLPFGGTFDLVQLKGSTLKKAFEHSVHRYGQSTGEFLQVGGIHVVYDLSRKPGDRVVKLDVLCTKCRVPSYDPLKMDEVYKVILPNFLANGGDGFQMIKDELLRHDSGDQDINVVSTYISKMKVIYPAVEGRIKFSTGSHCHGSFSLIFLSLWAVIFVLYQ

Compound	EC50 (CD73 [1])	IC50 (CD73 [2])	EC50 (CD73 [3]) [µM]	IC50 (CD73 [4]) [µM]
5-(8-((1S,2S)-2-(2,3,5-trifluorophenyl)cyclopropyl)imidazo[1,2-b]pyridazin-6-yl)pyrimidine-2,4(1H,3H)-dione and 5-(8-((1R,2R)-2-(2,3,5-trifluorophenyl)cyclopropyl)imidazo[1,2-b]pyridazin-6-yl)pyrimidine-2,4(1H,3H)-dione [Example 61]	0.0166 µM	0.0121 µM	–	–
5-(8-((1S,2S)-2-phenylcyclopropyl)imidazo[1,2-b]pyridazin-6-yl)pyrimidine-2,4-(1H,3H)-dione and 5-(8-((1R,2R)-2-phenylcyclopropyl)imidazo[1,2-b]pyridazin-6-yl)pyrimidine-2,4-(1H,3H)-dione [Example 104]	0.0232 µM	0.196 µM	–	–
O=c1[nH]cc(-c2cc([C@H]3C[C@@H]3c3ccc(OC(F)(F)F)cc3)c3nccn3n2)c(=O)[nH]1 (mixture of isomers) [Example 48, 5-(8-((1S,2S)-2-(4-(trifluoromethoxy)phenyl)cyclopropyl)imidazo[1,2-b]pyridazin-6-yl)pyrimidine-2,4(1H,3H)-dione and 5-(8-((1R,2R)-2-(4-(trifluoromethoxy)phenyl)cyclopropyl)imidazo[1,2-b]pyridazin-6-yl)pyrimidine-2,4(1H,3H)-dione]	0.0167 µM	–	–	–
N#Cc1cc([C@H]2C[C@@H]2c2cc(-c3c[nH]c(=O)[nH]c3=O)nn3ccnc23)ccc1F (mixture of isomers) [Example 64, 5-((1S,2S)-2-(6-(2,4-dioxo-1,2,3,4-tetrahydropyrimidin-5-yl)imidazo[1,2-b]pyridazin-8-yl)cyclopropyl)-2-fluorobenzonitrile and 5-((1R,2R)-2-(6-(2,4-dioxo-1,2,3,4-tetrahydropyrimidin-5-yl)imidazo[1,2-b]pyridazin-8-yl)cyclopropyl)-2-fluorobenzonitrile]	0.00287 µM	–	0.00767	–
O=c1[nH]cc(-c2cc([C@H]3C[C@@H]3c3ccc(C(F)(F)F)c(F)c3)c3nccn3n2)c(=O)[nH]1 (mixture of isomers) [Example 100, 5-(8-((1S,2S)-2-(3-fluoro-4-(trifluoromethyl)phenyl)cyclopropyl)imidazo[1,2-b]pyridazin-6-yl)pyrimidine-2,4(1H,3H)-dione and 5-(8-((1R,2R)-2-(3-fluoro-4-(trifluoromethyl)phenyl)cyclopropyl)imidazo[1,2-b]pyridazin-6-yl)pyrimidine-2,4(1H,3H)-dione]	0.0275 µM	–	–	–
COC[C@H]1C[C@@H]1c1cc(-c2c[nH]c(=O)[nH]c2=O)nn2ccnc12 (racemic) [Example 4, 5-(8-((1S,2S)-2-(methoxymethyl)cyclopropyl)imidazo[1,2-b]pyridazin-6-yl)pyrimidine-2,4(1H,3H)-dione and 5-(8-((1R,2R)-2-(methoxymethyl)cyclopropyl)imidazo[1,2-b]pyridazin-6-yl)pyrimidine-2,4(1H,3H)-dione]	0.191 µM and 0.285 µM	0.195 µM and 0.231 µM	–	–
O=c1[nH]cc(-c2cc([C@H]3CC34CCC4)c3nccn3n2)c(=O)[nH]1 (racemic) [Example 5, (S)-5-(8-(spiro[2.3]hexan-1-yl)imidazo[1,2-b]pyridazin-6-yl)pyrimidine-2,4(1H,3H)-dione and (R)-5-(8-(spiro[2.3]hexan-1-yl)imidazo[1,2-b]pyridazin-6-yl)pyrimidine-2,4(1H,3H)-dione]	2.02 µM and 2.53 µM	1.55 µM and 2.5 µM	–	–
CC(C)(C)[C@H]1C[C@@H]1c1cc(-c2c[nH]c(=O)[nH]c2=O)nn2ccnc12 (racemic) [Example 6, 5-(8-((1S,2S)-2-(tert-butyl)cyclopropyl)imidazo[1,2-b]pyridazin-6-yl)pyrimidine-2,4-(1H,3H)-dione and 5-(8-((1R,2R)-2-(tert-butyl)cyclopropyl)imidazo[1,2-b]pyridazin-6-yl)pyrimidine-2,4-(1H,3H)-dione]	0.184 µM	0.164 µM	–	–
O=c1[nH]cc(-c2cc([C@H]3C[C@@H]3C3CC3)c3nccn3n2)c(=O)[nH]1 (racemic) [Example 8, 5-(8-((1R,2S)-[1,1′-bi(cyclopropan)]-2-yl)imidazo[1,2-b]pyridazin-6-yl)pyrimidine-2,4(1H,3H)-dione and 5-(8-((1S,2R)-[1,1′-bi(cyclopropan)]-2-yl)imidazo[1,2-b]pyridazin-6-yl)pyrimidine-2,4(1H,3H)-dione]	0.0361 µM and 0.0472 µM	0.029 µM and 0.0458 µM	–	–
O=c1[nH]cc(-c2cc([C@H]3C[C@@H]3c3cccc(C(F)(F)F)c3)c3nccn3n2)c(=O)[nH]1 (racemic) [Example 41, 5-[8-[(1S,2S)-2-[3-(trifluoromethyl)phenyl]cyclopropyl]imidazo[1,2-b]pyridazin-6-yl]-1H-pyrimidine-2,4-dione and 5-[8-[(1R,2R)-2-[3-(trifluoromethyl)phenyl]cyclopropyl]imidazo[1,2-b]pyridazin-6-yl]-1H-pyrimidine-2,4-dione]	0.0186 µM	0.0616 µM	–	–
O=c1[nH]cc(-c2cc(N3C[C@@H](F)[C@@H](F)C3)c3nccn3n2)c(=O)[nH]1 [Example 77, 5-[8-[(3S,4R)-3,4-difluoropyrrolidin-1-yl]imidazo[1,2-b]pyridazin-6-yl]-1H-pyrimidine-2,4-dione and 5-[8-[(3R,4S)-3,4-difluoropyrrolidin-1-yl]imidazo[1,2-b]pyridazin-6-yl]-1H-pyrimidine-2,4-dione]	0.0134 µM	–	0.0284	–

Now from value to compound:

EC50 (CD73 [1])	IC50 (CD73 [2])	EC50 (CD73 [3]) [µM]	IC50 (CD73 [4]) [µM]	Compound
0.00325 µM	–	–	–	COc1ccccc1[C@H]1C[C@@H]1c1cc(-c2c[nH]c(=O)[nH]c2=O)nn2ccnc12 (mixture of isomers) [Example 101, 5-(8-((1S,2S)-2-(2-methoxyphenyl)cyclopropyl)imidazo[1,2-b]pyridazin-6-yl)pyrimidine-2,4(1H,3H)-dione and 5-(8-((1R,2R)-2-(2-methoxyphenyl)cyclopropyl)imidazo[1,2-b]pyridazin-6-yl)pyrimidine-2,4(1H,3H)-dione]
0.0935 µM	–	–	–	O=c1[nH]cc(-c2cc([C@H]3C[C@@H]3C3CC(F)(F)C3)c3nccn3n2)c(=O)[nH]1 (mixture of isomers) [Example 106, 5-(8-((1S,2R)-2-(3,3-difluorocyclobutyl)cyclopropyl)imidazo[1,2-b]pyridazin-6-yl)pyrimidine-2,4(1H,3H)-dione and 5-(8-((1R,2S)-2-(3,3-difluorocyclobutyl)cyclopropyl)imidazo[1,2-b]pyridazin-6-yl)pyrimidine-2,4(1H,3H)-dione]
0.055 µM	–	–	–	O=c1[nH]cc(-c2cc([C@H]3C[C@@H]3C(F)(F)F)c3nccn3n2)c(=O)[nH]1 (mixture of isomers) [Example 107, 5-(8-((1S,2S)-2-(trifluoromethyl)cyclopropyl)imidazo[1,2-b]pyridazin-6-yl)pyrimidine-2,4(1H,3H)-dione and 5-(8-((1R,2R)-2-(trifluoromethyl)cyclopropyl)imidazo[1,2-b]pyridazin-6-yl)pyrimidine-2,4(1H,3H)-dione]
0.0238 µM	–	–	–	O=c1[nH]cc(-c2cc([C@H]3C[C@]3(F)c3ccccc3)c3nccn3n2)c(=O)[nH]1 (mixture of isomers) [Example 108, 5-(8-((1R,2R)-2-fluoro-2-phenylcyclopropyl)imidazo[1,2-b]pyridazin-6-yl)pyrimidine-2,4(1H,3H)-dione and 5-(8-((1S,2S)-2-fluoro-2-phenylcyclopropyl)imidazo[1,2-b]pyridazin-6-yl)pyrimidine-2,4(1H,3H)-dione]
–	–	0.00032	0.00077	O=c1[nH]cc(-c2cc([C@H]3C[C@@H]3c3ccc4c(F)nn(CC(F)(F)F)c4c3)c3ncc(Cl)n3n2)c(=O)[nH]1 [Example 721, 5-[3-chloro-8-[(1S,2S)-2-[3-fluoro-1-(2,2,2-trifluoroethyl)indazol-6-yl]cyclopropyl]imidazo[1,2-b]pyridazin-6-yl]-1H-pyrimidine-2,4-dione]
–	–	0.00058	0.0011	CC1(C)C(=O)N(CC(F)(F)F)c2cc([C@H]3C[C@@H]3c3cc(-c4c[nH]c(=O)[nH]c4=O)nn4c(Cl)cnc34)ccc21 [Example 722, 5-[3-chloro-8-[(1S,2S)-2-[3,3-dimethyl-2-oxo-1-(2,2,2-trifluoroethyl)indolin-6-yl]cyclopropyl]imidazo[1,2-b]pyridazin-6-yl]-1H-pyrimidine-2,4-dione]
–	–	0.00104	0.00275	CC1(C)C(=O)N(CC(F)(F)F)c2cc([C@H]3C[C@@H]3c3cc(-c4c[nH]c(=O)[nH]c4=O)nn4c(F)cnc34)cnc21 [Example 723, 5-[8-[(1S,2S)-2-[3,3-dimethyl-2-oxo-1-(2,2,2-trifluoroethyl)pyrrolo[3,2-b]pyridin-6-yl]cyclopropyl]-3-fluoro-imidazo[1,2-b]pyridazin-6-yl]-1H-pyrimidine-2,4-dione]
–	–	0.00069	0.00062	O=c1[nH]cc(-c2cc(N3C[C@H](Oc4ccc(F)c(C(F)F)c4)C(F)(F)C3)c3nccn3n2)c(=O)[nH]1 [Example 745, (S)-5-(8-(4-(3-(difluoromethyl)-4-fluorophenoxy)-3,3-difluoropyrrolidin-1-yl)imidazo[1,2-b]pyridazin-6-yl)pyrimidine-2,4(1H,3H)-dione]
